Experimental findings from patent publication US8138188B2, “Melanocortin type 4 receptor agonist piperidinoylpyrrolidines” (Pfizer Inc., priority 2006, dated 2012) are described below.

Structures are written as SMILES.

Data set [1] is described as follows: In vitro metabolism rate determination, human liver microsome (HLM) assay. In kind it is in vitro ADME. The following applies: human liver microsomes, substrate 1 μM; read-out: HLM (intrinsic clearance). From the text: (§1) In vitro Metabolism Rate Determination (Human Liver Microsome (HLM); Rat Liver Microsome (RLM) Assay)
(§2) Many drugs are metabolised by the cytochrome P450 mono-oxygenase system. This enzyme is found in high concentrations in the liver and is bound to the endoplasmic reticulum of the hepatocyte. The enzyme system can be obtained in semi-purified state by the preparation of the hepatic microsomal fractions. Determining a compound's in vitro half-life in such a system provides a useful indicator of metabolic stability.
(§3) Methodology For In Vitro Rate Determination Using Hepatic & Supermix Microsomes
(§4) The method outlined below is for a total incubation volume of 1.5 ml.
(§5) 1. The following mixture is prepared in a test tube:
(§6) 2. Defrost microsomes at room temperature and add sufficient microsomes to give a final concentration of 0.5 nmol cytochrome P450/ml of incubation e.g. for a 1.5 ml incubation, the volume of microsomes to be added is:
(§7) [formula] 3. Add sufficient MilliQ water to give a total incubation volume of 1.425 ml. 4. Remove 237.5 μl of incubation mix and place in test tube for PNA positive control. Add 2.5 μl of PNA solution, whirlimix, and put tube into a rack in the thermostatically controlled shaking water bath 5. Remove 100 μl for no substrate control and dispense in test tube. Place test tube in a rack in the thermostatically controlled shaking water bath. 6. Add substrate to the incubation. The substrate should be at an initial concentration of 1 μM. The volume of substrate required in the remaining 1.162.5 ml incubation is calculated as follows:
(§8) [formula] • N.B. The volume of organic solvent added should not exceed 0.1% of the total incubation volume. 7. Remove 100 μl of incubation mix into test tube for no cofactor control. Whirlimix and put into a rack in the thermostatically controlled shaking water bath. 8. Pre-incubate the tube containing the incubation mix, also positive control and no cofactor tubes in the thermostatically controlled shaking water bath set at 37° C. for approx 5 min. 9. Add NADP to initiate reaction (75 μl to each 1.162.5 ml incubation mix, 12.5 μl to positive control tube and 5 μl to no substrate tube) and take first time point immediately. The PNA positive control, no cofactor control and no substrate tubes are incubated for the total incubation time. 10. Remove 100 μl aliquots up to 9 different sampling points from 0 to 60 min (usually 0, 3, 5, 10, 15, 20, 30, 45 & 60 min) and terminate reaction. Longer incubation times can be used, but, after 120 min the microsomes deteriorate. The reaction may be terminated by addition of organic solvent, acid or base. At the end of the incubation process the no cofactor and no substrate controls in a similar manner i.e. terminate with the same reagent. 11. PNA Positive Control Procedure: • After the final sample has been taken, remove the positive control and add 1 ml 20% TCA to this tube. Also prepare a tube containing 250 μl of a PNP standard at 50 μM, and add 1 ml 20% TCA. Whirlimix both tubes and leave for approx 5 min to allow the protein to precipitate. • Centrifuge both tubes for approx 5 min in an instrument set at 3500 rpm. Remove 1 ml of supernatant and place into clean test tubes, discard the remainder. • Add 1 ml 10M NaOH to the supernatant, whirlimix, and leave to stand for approx min. Blank spectrophotometer with distilled water at 400 nm then measure absorbance of the PNP standard against distilled water. The microsomal 4-nitroanisole O-demethylase activity is calculated as follows: Calculation of Results
(§9) [formula] • The activity value from the incubation MUST be equal to or greater than 85% of the mean value of the batch used for the incubation to be valid. If this criteria is not met, then the incubation must be repeated. 11. Analyse samples (including no cofactor and no substrate control) by a specific assay for the substrate to determine the disappearance kinetics. Analysis Of Data […]

The target of the next data set is MC4 receptor (Homo sapiens, UniProt P32245). The data set is described as follows: MC4 functional agonist potency (EC50), assay protocol E of US2005/0176772 / WO 2005/077935. It is filed as cell-based. The note with it: functional potency at the MC4 receptor. As to the method: The compounds of formula (I) of the present invention have utility as MCR4 agonists in the treatment of various disease states.
Chain of MC4 receptor (P32245 whole entry): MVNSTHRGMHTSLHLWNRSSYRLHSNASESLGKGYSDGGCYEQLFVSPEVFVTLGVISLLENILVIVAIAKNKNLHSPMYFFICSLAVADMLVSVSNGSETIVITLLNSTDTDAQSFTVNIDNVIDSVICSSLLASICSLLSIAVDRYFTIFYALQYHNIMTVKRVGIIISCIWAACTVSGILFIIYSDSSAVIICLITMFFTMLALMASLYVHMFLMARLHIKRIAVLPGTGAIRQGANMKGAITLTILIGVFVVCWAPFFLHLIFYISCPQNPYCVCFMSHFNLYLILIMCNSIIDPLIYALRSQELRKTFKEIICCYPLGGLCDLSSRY
MC5 and MC4 EC50 activity was determined as described by assay protocols D and E, respectively, in US2005/0176772 (pages 28-30).

Another data set concerns the target T1, MC4 receptor (MC4R) (Homo sapiens, UniProt P32245).
T1 construct: expressed in transfected cells; host or cells: CHO-CRE MC4R cells (membranes)
The data set is described as follows: AGRP inhibition: competition binding vs [125I]AGRP(87-132) at CHO-CRE MC4R cell membranes. The note with it: vs 0.3 nM [125I]AGRP(87-132). From the text: Agouti related protein (AGRP) is a high affinity endogenous antagonist/inverse agonist for the MC4 receptor (Lu et al., 1994, Nature 371: 799-802; Oilman et al., 1997, Science 278: 135-138). […] It has been ascertained that this C-terminal fragment of AGRP contains the MC4R binding determinants (Yang et al., 1999, Mol Endocrinol 13: 148-155), therefore, compounds can be evaluated for their ability to inhibit AGRP binding to membranes from cells expressing the MC4R using a competition binding assay versus [^125I]AGRP(87-132). To this end cells expressing the MC4R were subject to homogenisation and the membrane fragment isolated by differential centrifugation. CHO-CRE MC4R cell membranes (12 μg protein) were incubated with 0.3 nM [^125I]AGRP(87-132) and 11 half-log concentrations of competitor ligand, in duplicate, in a total volume of 100 μl buffer (25 mM HEPES, 1 mM MgCl2, 2.5 mM CaCl2, 0.5% BSA pH 7.0). Non-specific binding was determined by the inclusion of 1 μM SHU9119. The reaction was initiated by the addition of membranes and plates were incubated at room temperature for 2 hours. The reaction was terminated by rapid filtration onto GF/C filters (presoaked in 1% PEI) using a vacuum harvester followed by five 200 μl washes of ice cold wash buffer (Binding buffer containing 500 mM NaCl). The filters were soaked in 50 μl scintillation fluid and the amount of radioactivity present was determined by liquid scintillation counting. Ki values were determined by data analysis using appropriate software.

Data set [2] is described as follows: In vitro metabolism rate determination, rat liver microsome (RLM) assay. In kind it is in vitro ADME. The note with it: rat liver microsomes, substrate 1 μM; read-out: RLM (intrinsic clearance).
Text: as §1, §2, §3, §4, §5, §6, §7, §8, §9

T1 sequence (P32245 whole entry): as above

In the case of `COc1ccc([C@@H]2CN(c3ccc(C#N)nn3)C[C@H]2C(=O)N2C[C@@H](C)[C@](O)(c3ccc(F)cc3)[C@@H](C)C2)nc1` [Example 43], the microsomal CLint at 1 μM in data set [1] came out at 37 µL/min/mg. For the same compound, at MC4 receptor, the 50% effective concentration (EC50) was determined as 49.3 nM. The Ki at MC4 receptor (MC4R) is 248 nM.
In the case of `C[C@@H]1CN(C(=O)[C@@H]2CN(c3ccc(=O)n(C)n3)C[C@H]2c2ccc(Cl)cn2)C[C@H](C)[C@@]1(O)C1CCCCC1` [Example 17], the figures for the microsomal CLint at 1 μM in data set [2] and in data set [1] were greater than 510 µL/min/mg and greater than 440 µL/min/mg, respectively. Further, the EC50 at MC4 receptor worked out at 1.59 nM. On MC4 receptor (MC4R), this compound displayed an inhibition constant (Ki) of 20 nM.
In the case of `C[C@@H]1CN(C(=O)[C@@H]2CN(c3ccc(=O)[nH]n3)C[C@H]2c2ccc(F)cn2)C[C@H](C)[C@@]1(O)c1ccc(Cl)cc1` [Example 6, 6-[(3S,4S)-3-{[(3R,4R,5S)-4-(4-chlorophenyl)-4-hydroxy-3,5-dimethylpiperidin-1-yl]carbonyl}-4-(5-fluoropyridin-2-yl)pyrrolidin-1-yl]pyridazin-3(2H)-one], in data set [2], the microsomal CLint at 1 μM is less than 8.5 µL/min/mg. The compound also gave an EC50 on MC4 receptor of 18.9 nM. For the same compound, the Ki at MC4 receptor (MC4R) amounted to 456 nM.
Turning to `C[C@@H]1CN(C(=O)[C@@H]2CN(c3ccc(C#N)nn3)C[C@H]2c2ccc(F)cn2)C[C@H](C)[C@@]1(O)c1ccc(Cl)cc1` [Example 32], the results for the microsomal CLint at 1 μM in data set [2] and in data set [1] were less than 8.5 µL/min/mg and 8 µL/min/mg, respectively. For the same compound, the EC50 at MC4 receptor stood at 8.78 nM. Moreover, the Ki at MC4 receptor (MC4R) was found to be 160 nM.
The like results for `C[C@@H]1CN(C(=O)[C@@H]2CN(c3cccnn3)C[C@H]2c2ccc(Cl)cn2)C[C@H](C)[C@@]1(O)c1ccccn1` [Example 9, (3R,4R,5S)-1-{[(3S,4S)-4-(5-chloropyridin-2-yl)-1-pyridazin-3-ylpyrrolidin-3-yl]carbonyl}-3,5-dimethyl-4-pyridin-2-ylpiperidin-4-ol] were, in that order, 411 µL/min/mg, 240 µL/min/mg, 39.3 nM and 523 nM.
In the case of `C[C@@H]1CN(C(=O)[C@@H]2CN(c3cncc(F)c3)C[C@H]2c2ccc(Cl)cn2)C[C@H](C)[C@@]1(O)c1ccccn1` [Example 8, (3R,4R,5S)-1-{[(3S,4S)-4-(5-chloropyridin-2-yl)-1-(5-fluoropyridin-3-yl)pyrrolidin-3-yl]carbonyl}-3,5-dimethyl-4-pyridin-2-ylpiperidin-4-ol], the microsomal CLint at 1 μM is greater than 510 µL/min/mg in data set [2] and greater than 440 µL/min/mg in data set [1]. Further, the concentration for a half-maximal effect (EC50) on MC4 receptor amounted to 27.5 nM. For the same compound, the inhibition constant Ki on MC4 receptor (MC4R) was determined as 643 nM.
Consider `COc1ccc(N2CC(C(=O)N3CC(C)C(O)(C4CC4)C(C)C3)C(c3ccc(Cl)cn3)C2)nn1` (centres unmarked) [Example 26], for which the microsomal CLint at 1 μM in data set [2] is greater than 510 µL/min/mg; in data set [1], 70 µL/min/mg. At MC4 receptor, this compound returned a 50% effective concentration (EC50) of 22.5 nM. For the same compound, the affinity on MC4 receptor (MC4R), expressed as Ki, was 363 nM.
As to `CC1CN(C(=O)C2CN(c3cncc(F)c3)CC2c2ccc(Cl)cn2)CC(C)C1(O)C1CC1` (centres unmarked) [Example 24], the microsomal CLint at 1 μM was greater than 510 µL/min/mg in data set [2] and 355 µL/min/mg in data set [1]. On MC4 receptor, this compound had an EC50 of 59.3 nM. The compound also showed a Ki on MC4 receptor (MC4R) greater than 955 nM.
Consider `C[C@@H]1CN(C(=O)[C@@H]2CN(c3ccc(Cl)nn3)C[C@H]2c2ccc(F)cn2)C[C@H](C)[C@@]1(O)c1ccccc1` [Example 35], for which the microsomal CLint at 1 μM came to 92 µL/min/mg in data set [2] and 100 µL/min/mg in data set [1]. This compound also gave an EC50 at MC4 receptor of 62.2 nM. For the same compound, at MC4 receptor (MC4R), the inhibitory constant (Ki) is 386 nM.
For `CC1CN(C(=O)C2CN(c3ccc(=O)[nH]n3)CC2c2ccc(Cl)cn2)CC(C)C1(O)c1ccccc1` (centres unmarked) [Example 27], the microsomal CLint at 1 μM is 31 µL/min/mg in data set [2] and 51 µL/min/mg in data set [1]. Besides, it took 4.54 nM to reach a half-maximal effect at MC4 receptor (EC50). At MC4 receptor (MC4R), this compound yielded a Ki of 100 nM.
The like results for `CC1CN(C(=O)C2CN(c3cncc(F)c3)CC2c2ccc(Cl)cn2)CC(C)C1(O)c1ccc(F)cc1` (centres unmarked) [Example 25] were, in that order, 172 µL/min/mg, 308 µL/min/mg, 12.4 nM and 278 nM.
Regarding `CC1CN(C(=O)C2CN(c3ccc(=O)n(C)n3)CC2c2ccc(Cl)cn2)CC(C)C1(O)c1ccc(F)c(F)c1` (centres unmarked) [Example 19], the microsomal CLint at 1 μM in data set [2] and in data set [1] was 21 µL/min/mg throughout. Further, the EC50 on MC4 receptor came out at 6.5 nM. Besides, the affinity on MC4 receptor (MC4R), expressed as Ki, was 79 nM.
Consider `C[C@@H]1CN(C(=O)[C@@H]2CN(c3ccc(Cl)nn3)C[C@H]2c2ccc(F)cn2)C[C@H](C)[C@@]1(O)c1ccc(Cl)cc1` [Example 5, (3R,4R,5S)-4-(4-chlorophenyl)-1-{[(3S,4S)-1-(6-chloropyridazin-3-yl)-4-(5-fluoropyridin-2-yl)pyrrolidin-3-yl]carbonyl}-3,5-dimethylpiperidin-4-ol], for which the microsomal CLint at 1 μM in data set [2] was 27 µL/min/mg; in data set [1], less than 7 µL/min/mg. This compound also yielded an EC50 at MC4 receptor of 137 nM. Also, the Ki at MC4 receptor (MC4R) was determined as 552 nM.
`CC1CN(C(=O)C2CN(c3ccc(=O)[nH]n3)CC2c2ccc(F)cn2)CC(C)C1(O)c1ccccc1` (centres unmarked) [Example 37]: the microsomal CLint at 1 μM in data set [2] was found to be 23 µL/min/mg; in data set [1], 19.5 µL/min/mg. The compound also registered an inhibition constant Ki on MC4 receptor (MC4R) of 422 nM.
The like results for `COc1ccc(C2CN(c3ccc(=O)[nH]n3)CC2C(=O)N2CC(C)C(O)(c3ccc(F)cc3)C(C)C2)nc1` (centres unmarked) [Example 42] were, in that order, 25 µL/min/mg, 25 µL/min/mg and 888 nM.
The like results for `COc1ccc(N2C[C@@H](C(=O)N3C[C@@H](C)[C@](O)(c4ccc(F)cc4)[C@@H](C)C3)[C@H](c3ccc(Cl)cn3)C2)nn1` [Example 4, (3R,4R,5S)-1-{[(3S,4S)-4-(5-chloropyridin-2-yl)-1-(6-methoxypyridazin-3-yl)pyrrolidin-3-yl]carbonyl}-4-(4-fluorophenyl)-3,5-dimethylpiperidin-4-ol] were, in that order, 74 µL/min/mg, 60 µL/min/mg and 51 nM.
The like results for `CC1CN(C(=O)C2CN(c3ccc(=O)n(C)n3)CC2c2ccc(F)cn2)CC(C)C1(O)c1ccccc1` (centres unmarked) [Example 39] were, in that order, 58 µL/min/mg, 95 µL/min/mg and 751 nM.
